pIC50: −log10 of the molar value.

Data on eight compounds can be found in patent US10745382B2 (BRISTOL-MYERS SQUIBB COMPANY, priority 2015, dated 2020).

T1 sequence (Q9NZQ7 with tags, fused parts or gaps): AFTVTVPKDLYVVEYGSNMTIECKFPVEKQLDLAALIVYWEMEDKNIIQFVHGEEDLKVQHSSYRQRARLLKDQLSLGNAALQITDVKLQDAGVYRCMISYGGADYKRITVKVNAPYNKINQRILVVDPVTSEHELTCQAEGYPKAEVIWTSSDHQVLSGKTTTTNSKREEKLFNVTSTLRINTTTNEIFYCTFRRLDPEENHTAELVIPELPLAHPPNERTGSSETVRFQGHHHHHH

The first experiment addresses T1, PD-1/PD-L1 (Homo sapiens, UniProt Q9NZQ7).
T1 construct: made in house; host or cells: HEK293T
The experiment can be described thus: PD-1/PD-L1 Homogenous Time-Resolved Fluorescence (HTRF) binding assay. Conditions: PD-L1-His 10 nM, PD-1-Ig 20 nM; numeric IC50; read-out: Range or IC50. The protocol: The ability of the compounds of formula (I) to bind to PD-L1 was investigated using a PD-1/PD-L1 Homogenous Time-Resolved Fluorescence (HTRF) binding assay.
Homogenous Time-Resolved Fluorescence (HTRF) Binding Assay.
All binding studies were performed in an HTRF assay buffer consisting of dPBS supplemented with 0.1% […] bovine serum albumin and 0.05% (v/v) Tween-20. […] HTRF detection was achieved using europium crypate-labeled anti-Ig (1 nM final) and allophycocyanin (APC) labeled anti-His (20 nM final). Antibodies were diluted in HTRF detection buffer and 5 μl was dispensed on top of the binding reaction. […] Additional binding assays were established between the human proteins PD-1-Ig/PD-L2-His (20 & 5 nM, respectively) and CD80-His/PD-L1-Ig (100 & 10 nM, respectively). […]
For orientation: Time-resolved FRET reads energy transfer from a long-lived donor to a nearby acceptor.
In general, pIC50 refers to the negative decadic logarithm of the IC50, by convention in mol/L. Regarding `Cc1c(COc2cc(OCc3cncc(C#N)c3)c(CN[C@@](C)(CO)C(=O)O)cc2Cl)cccc1-c1cccc(OCCCN2CCC(O)C2)c1C(F)(F)F` (stereo in doubt) [Example 3011, (S)-2-((5-chloro-2-((5-cyanopyridin-3-yl)methoxy)-4-((3′-(3-((R)-3-hydroxypyrrolidin-1-yl)propoxy)-2-methyl-2′-(trifluoromethyl)-[1,1′-biphenyl]-3-yl)methoxy)benzyl)amino)-3-hydroxy-2-methylpropanoic Acid], the pIC50 was 8.05.

Staying with this experiment, now noted: PD-L1-His 10 nM, PD-1-Ig 20 nM; value given as range class; read-out: Range or IC50.
As to `Cc1c(COc2cc(OCc3cncc(C#N)c3)c(CN[C@](C)(CO)C(=O)O)cc2Cl)cccc1-c1cccc(OCCCN2CCC(O)C2)c1C` (stereo in doubt) [Example 3005, (R)-2-((5-chloro-2-((5-cyanopyridin-3-yl)methoxy)-4-((3′-(3-((R)-3-hydroxypyrrolidin-1-yl)propoxy)-2,2′-dimethyl-[1,1′-biphenyl]-3-yl)methoxy)benzyl)amino)-3-hydroxy-2-methylpropanoic Acid], the pIC50 is 8.00 to 9.68.

Take `Cc1c(COc2cc(OCc3cncc(C#N)c3)c(CN3CCCC[C@H]3C(=O)O)cc2Cl)cccc1-c1cccc(OCCCN2CCC(O)C2)c1C` (stereo in doubt) [Example 3006, (S)-1-(5-chloro-2-((5-cyanopyridin-3-yl)methoxy)-4-((3′-(3-((R)-3-hydroxypyrrolidin-1-yl)propoxy)-2,2′-dimethyl-[1,1′-biphenyl]-3-yl)methoxy)benzyl)piperidine-2-carboxylic Acid]: the pIC50 was 8.00 to 9.68.

Take `Cc1c(COc2cc(OCc3cncc(C#N)c3)c(CNCCCN(C)C)cc2Cl)cccc1-c1cccc(OCCCN2CCC(O)C2)c1C` (stereo in doubt) [Example 3007, (R)-5-((4-chloro-2-(((3-(dimethylamino)propyl)amino)methyl)-5-((3′-(3-(3-hydroxypyrrolidin-1-yl)propoxy)-2,2′-dimethyl-[1,1′-biphenyl]-3-yl)methoxy)phenoxy)methyl)nicotinonitrile]: the pIC50 is 8.00 to 9.68.

Regarding `Cc1c(COc2cc(OCc3cncc(C#N)c3)c(CN[C@@](C)(CO)C(=O)O)cc2Cl)cccc1-c1cccc(OCCCN2CCC(O)C2)c1C#N` (stereo in doubt) [Example 3008, (S)-2-((5-chloro-4-((2′-cyano-3′-(3-((R)-3-hydroxypyrrolidin-1-yl)propoxy)-2-methyl-[1,1′-biphenyl]-3-yl)methoxy)-2-((5-cyanopyridin-3-yl)methoxy)benzyl)amino)-3-hydroxy-2-methylpropanoic Acid], the pIC50 was 8.00 to 9.68.

Consider `Cc1c(COc2cc(OCc3cncc(C#N)c3)c(CN[C@@H](CO)C(=O)O)cc2Cl)cccc1-c1cccc(OCCCN2CCC(O)C2)c1C#N` (stereo in doubt) [Example 3009, (S)-2-((5-chloro-4-((2′-cyano-3′-(3-((R)-3-hydroxypyrrolidin-1-yl)propoxy)-2-methyl-[1,1′-biphenyl]-3-yl)methoxy)-2-((5-cyanopyridin-3-yl)methoxy)benzyl)amino)-3-hydroxypropanoic Acid], for which the pIC50 was 8.00 to 9.68.

Consider `Cc1c(COc2cc(OCc3cncc(C#N)c3)c(CN[C@](C)(CO)C(=O)O)cc2Cl)cccc1-c1cccc(OCCCN2CCC(O)C2)c1C#N` (stereo in doubt) [Example 3010, (R)-2-((5-chloro-4-((2′-cyano-3′-(3-((R)-3-hydroxypyrrolidin-1-yl)propoxy)-2-methyl-[1,1′-biphenyl]-3-yl)methoxy)-2-((5-cyanopyridin-3-yl)methoxy)benzyl)amino)-3-hydroxy-2-methylpropanoic Acid], for which the negative-log IC50 (pIC50) is 8.00 to 9.68.

For `Cc1c(COc2cc(OCc3cncc(C#N)c3)c(CN[C@@H](CO)C(=O)O)cc2Cl)cccc1-c1cccc(OCCCN2CCC(O)C2)c1C(F)(F)F` (stereo in doubt) [Example 3012, (S)-2-((5-chloro-2-((5-cyanopyridin-3-yl)methoxy)-4-((3′-(3-((R)-3-hydroxypyrrolidin-1-yl)propoxy)-2-methyl-2′-(trifluoromethyl)-[1,1′-biphenyl]-3-yl)methoxy)benzyl)amino)-3-hydroxypropanoic Acid], the pIC50 was 8.00 to 9.68.
